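Five compound concentrations were applied to cells in 96-well plates for 48 hours; endpoints were derived by simple linear interpolation of the resulting dose-response curve. Here, GI50 denotes the concentration required for 50% inhibition of growth. Definition used: TGI = concentration required for complete inhibition of growth.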
Experiments:
Test in all cases: inhibition of tumour cell growth, NCI panel, 48 h
786-0 renal = system: 786-0 renal
A549 NSCLC = system: A549 NSCLC
ACHN renal = system: ACHN renal
BT-549 breast = system: BT-549 breast
CAKI-1 renal = system: CAKI-1 renal
CCRF-CEM leukemia = system: CCRF-CEM leukemia
COLO 205 colon = system: COLO 205 colon
DU-145 prostate = system: DU-145 prostate
EKVX NSCLC = system: EKVX NSCLC
HCC-2998 colon = system: HCC-2998 colon
HCT-116 colon = system: HCT-116 colon
HCT-15 colon = system: HCT-15 colon
HL-60(TB) leukemia = system: HL-60(TB) leukemia
HOP-62 NSCLC = system: HOP-62 NSCLC
HOP-92 NSCLC = system: HOP-92 NSCLC
HS 578T breast = system: HS 578T breast
HT29 colon = system: HT29 colon
IGROV1 ovarian = system: IGROV1 ovarian
K-562 leukemia = system: K-562 leukemia
KM12 colon = system: KM12 colon
LOX IMVI melanoma = system: LOX IMVI melanoma
M14 melanoma = system: M14 melanoma
MALME-3M melanoma = system: MALME-3M melanoma
MCF7 breast = system: MCF7 breast
MDA-MB-231 breast = system: MDA-MB-231 breast
MDA-MB-435 = system: MDA-MB-435
MOLT-4 leukemia = system: MOLT-4 leukemia
NCI-H226 lung = system: NCI-H226 lung
NCI-H23 lung = system: NCI-H23 lung
NCI-H460 lung = system: NCI-H460 lung
NCI-H522 lung = system: NCI-H522 lung
NCI/ADR-RES ovarian = system: NCI/ADR-RES ovarian
OVCAR-3 ovarian = system: OVCAR-3 ovarian
OVCAR-4 ovarian = system: OVCAR-4 ovarian
OVCAR-5 ovarian = system: OVCAR-5 ovarian
OVCAR-8 ovarian = system: OVCAR-8 ovarian
PC-3 prostate = system: PC-3 prostate
RPMI-8226 leukemia = system: RPMI-8226 leukemia
RXF 393 renal = system: RXF 393 renal
SF-268 CNS = system: SF-268 CNS
SF-295 CNS = system: SF-295 CNS
SF-539 CNS = system: SF-539 CNS
SK-MEL-2 melanoma = system: SK-MEL-2 melanoma
SK-MEL-28 melanoma = system: SK-MEL-28 melanoma
SK-MEL-5 melanoma = system: SK-MEL-5 melanoma
SK-OV-3 ovarian = system: SK-OV-3 ovarian
SN12C renal = system: SN12C renal
SNB-19 CNS = system: SNB-19 CNS
SNB-75 CNS = system: SNB-75 CNS
SR leukemia = system: SR leukemia
SW-620 colon = system: SW-620 colon
T-47D breast = system: T-47D breast
TK-10 renal = system: TK-10 renal
U251 CNS = system: U251 CNS
UACC-257 melanoma = system: UACC-257 melanoma
UACC-62 melanoma = system: UACC-62 melanoma
UO-31 renal = system: UO-31 renal

`COC1[C@@H]2C[C@H]3C(C)(C)O[C@@](C/C=C(/C)C(=O)O)(C2=O)[C@]32Oc3c(CC=C(C)C)c4c(c(O)c3C(=O)[C@H]12)C=CC(C)(C)O4` (some centres undefined) was tested, and the GI50 (786-0 renal) was 2.49 µM, the TGI (786-0 renal) was 5.97 µM and the GI50 (A549 NSCLC) was 19.7 µM. The TGI (A549 NSCLC) was 49.9 µM, the GI50 (ACHN renal) was 4.91 µM and the TGI (ACHN renal) was 18.4 µM. It also gave a GI50 (BT-549 breast) of 2.47 µM, a TGI (BT-549 breast) of 7.1 µM and a GI50 (CAKI-1 renal) of 16.5 µM. It also gave a TGI (CAKI-1 renal) of 33.1 µM, a GI50 (CCRF-CEM leukemia) of 3.73 µM and a TGI (CCRF-CEM leukemia) of 53.1 µM. For the same compound, the GI50 (COLO 205 colon) was 17.2 µM, the TGI (COLO 205 colon) was 40.7 µM and the GI50 (DU-145 prostate) was 13.2 µM. It also gave a TGI (DU-145 prostate) of 26.1 µM, a GI50 (EKVX NSCLC) of 10.3 µM and a TGI (EKVX NSCLC) of 28.9 µM. For the same compound, the GI50 (HCC-2998 colon) was 16.8 µM, the TGI (HCC-2998 colon) was 34.4 µM and the GI50 (HCT-116 colon) was 3.07 µM. For the same compound, the TGI (HCT-116 colon) was 9.71 µM, the GI50 (HCT-15 colon) was 2.97 µM and the TGI (HCT-15 colon) was 13.5 µM. For the same compound, the GI50 (HL-60(TB) leukemia) was 1.53 µM, the TGI (HL-60(TB) leukemia) was 4.99 µM and the GI50 (HOP-62 NSCLC) was 16.3 µM. It also gave a TGI (HOP-62 NSCLC) of 32.4 µM, a GI50 (HOP-92 NSCLC) of 10.1 µM and a TGI (HOP-92 NSCLC) of 25.9 µM. It also gave a GI50 (HS 578T breast) of 9.58 µM, a TGI (HS 578T breast) of 78 µM and a GI50 (HT29 colon) of 10.2 µM. The TGI (HT29 colon) was 28.8 µM, the GI50 (IGROV1 ovarian) was 3.27 µM and the TGI (IGROV1 ovarian) was 10.7 µM. The GI50 (K-562 leukemia) was 3.92 µM, the TGI (K-562 leukemia) was 31.4 µM and the GI50 (KM12 colon) was 14.5 µM. It also gave a TGI (KM12 colon) of 31.1 µM, a GI50 (LOX IMVI melanoma) of 2.15 µM and a TGI (LOX IMVI melanoma) of 5.31 µM. It also gave a GI50 (M14 melanoma) of 6.57 µM, a TGI (M14 melanoma) of 24.4 µM and a GI50 (MALME-3M melanoma) of 14.2 µM. For the same compound, the TGI (MALME-3M melanoma) was 29.5 µM, the GI50 (MCF7 breast) was 3.22 µM and the TGI (MCF7 breast) was 19.1 µM. The GI50 (MDA-MB-231 breast) was 6.56 µM, the TGI (MDA-MB-231 breast) was 27.6 µM and the GI50 (MDA-MB-435) was 11.6 µM. For the same compound, the TGI (MDA-MB-435) was 27.8 µM, the GI50 (MOLT-4 leukemia) was 3.61 µM and the TGI (MOLT-4 leukemia) was 36.8 µM. For the same compound, the GI50 (NCI-H226 lung) was 18.9 µM, the TGI (NCI-H226 lung) was 44.8 µM and the GI50 (NCI-H23 lung) was 16.4 µM. For the same compound, the TGI (NCI-H23 lung) was 50.6 µM, the GI50 (NCI-H460 lung) was 8.15 µM and the TGI (NCI-H460 lung) was 25.8 µM. For the same compound, the GI50 (NCI-H522 lung) was 15.3 µM, the TGI (NCI-H522 lung) was 32.3 µM and the GI50 (NCI/ADR-RES ovarian) was 15.2 µM. It also gave a TGI (NCI/ADR-RES ovarian) of over 100 µM, a GI50 (OVCAR-3 ovarian) of 3.77 µM and a TGI (OVCAR-3 ovarian) of 14.9 µM. For the same compound, the GI50 (OVCAR-4 ovarian) was 12.1 µM, the TGI (OVCAR-4 ovarian) was 29.9 µM and the GI50 (OVCAR-5 ovarian) was 20.1 µM. For the same compound, the TGI (OVCAR-5 ovarian) was 41.7 µM, the GI50 (OVCAR-8 ovarian) was 6.82 µM and the TGI (OVCAR-8 ovarian) was 29.5 µM. For the same compound, the GI50 (PC-3 prostate) was 6.03 µM, the TGI (PC-3 prostate) was 22.2 µM and the GI50 (RPMI-8226 leukemia) was 2.56 µM. For the same compound, the TGI (RPMI-8226 leukemia) was 8.1 µM, the GI50 (RXF 393 renal) was 4.54 µM and the TGI (RXF 393 renal) was 18.2 µM. The GI50 (SF-268 CNS) was 12.8 µM, the TGI (SF-268 CNS) was 31.7 µM and the GI50 (SF-295 CNS) was 15.3 µM. It also gave a TGI (SF-295 CNS) of 34.8 µM, a GI50 (SF-539 CNS) of 14.3 µM and a TGI (SF-539 CNS) of 28.5 µM. For the same compound, the GI50 (SK-MEL-2 melanoma) was 19 µM, the TGI (SK-MEL-2 melanoma) was 42.1 µM and the GI50 (SK-MEL-28 melanoma) was 11.9 µM. The TGI (SK-MEL-28 melanoma) was 26.6 µM, the GI50 (SK-MEL-5 melanoma) was 12.5 µM and the TGI (SK-MEL-5 melanoma) was 25.9 µM. It also gave a GI50 (SK-OV-3 ovarian) of 23.4 µM, a TGI (SK-OV-3 ovarian) of 53.4 µM and a GI50 (SN12C renal) of 6.85 µM. The TGI (SN12C renal) was 29.7 µM, the GI50 (SNB-19 CNS) was 15.6 µM and the TGI (SNB-19 CNS) was 30.7 µM. For the same compound, the GI50 (SNB-75 CNS) was 19.2 µM, the TGI (SNB-75 CNS) was 54.3 µM and the GI50 (SR leukemia) was 2.43 µM. For the same compound, the TGI (SR leukemia) was over 100 µM, the GI50 (SW-620 colon) was 3.05 µM and the TGI (SW-620 colon) was 10.8 µM. The GI50 (T-47D breast) was 3.14 µM, the TGI (T-47D breast) was 17.6 µM and the GI50 (TK-10 renal) was 18.8 µM. For the same compound, the TGI (TK-10 renal) was 33.5 µM, the GI50 (U251 CNS) was 4.35 µM and the TGI (U251 CNS) was 16.1 µM. For the same compound, the GI50 (UACC-257 melanoma) was 14.7 µM, the TGI (UACC-257 melanoma) was 35.8 µM and the GI50 (UACC-62 melanoma) was 13.2 µM. For the same compound, the TGI (UACC-62 melanoma) was 29.4 µM, the GI50 (UO-31 renal) was 6.73 µM and the TGI (UO-31 renal) was 21.3 µM.

Reference: PubChem BioAssay (NCI)
